{"source": "patent US8735398B2", "about": "(Bristol-Myers Squibb Company, priority 2009, dated 2014)", "data": [{"tested_on": "HCV 1b genotype", "experiment": "HCV replicon assay (HCV-neo replicon cells, wild-type)", "format": "cell-based, Hepatitis C virus", "conditions": "HCV 1b genotype replicon; class symbol; read-out: EC50 Range against HCV 1b", "summary_of_the_method": "(§1)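 Inhibition was tested in replicon-bearing cells, both wild-type HCV-neo and lines with NS5A resistance substitutions, using the O'Boyle et al. 2005 replicon method or luciferase-reporter formats.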", "units": {"EC50": "nM"}, "values": [{"smiles": "CC(C)(C)OC(=O)N1CCCC1(C)C(=O)N1CCC[C@H]1C(=O)Nc1ccc(-c2cnc(-c3ccc(NC(=O)[C@@H]4CCCN4C(=O)C4(C)CCCN4C(=O)OC(C)(C)C)cc3)o2)cc1", "note": "(stereo partly drawn) [Example D-30, di-tert-butyl 2,2′-(1,3-oxazole-2,5-diylbis(4,1-phenylenecarbamoyl(2S)-2,1-pyrrolidinediylcarbonyl))bis(2-methyl-1-pyrrolidinecarboxylate)]", "EC50": "1000 to 10000"}, {"smiles": "CCOC(=O)c1cc(C(O)C(=O)N2CCC[C@H]2C(=O)Nc2ccc(-c3cnc(-c4ccc(NC(=O)[C@@H]5CCCN5C(=O)C(O)c5c[nH]c(C(=O)OCC)c5)cc4)o3)cc2)c[nH]1", "note": "(stereo partly drawn) [Example D-12, diethyl 4,4′-(2,2′-(2S,2′S)-2,2′-(4,4′-(oxazole-2,5-diyl)bis(4,1-phenylene))bis(azanediyl)bis(oxomethylene)bis(pyrrolidine-2,1-diyl)bis(1-hydroxy-2-oxoethane-2,1-diyl))bis(1H-pyrrole-2-carboxylate)]", "EC50": "1000 to 10000"}]}, {"tested_on": "HCV 1b genotype", "experiment": "HCV replicon assay (HCV-neo replicon cells, wild-type)", "format": "cell-based, Hepatitis C virus", "conditions": "HCV 1b genotype replicon; class symbols; read-out: EC50 Range against HCV 1b", "summary_of_the_method": "as §1", "units": {"EC50": "nM"}, "values": [{"smiles": "O=C(Nc1ccc(-c2cnc(-c3ccc(NC(=O)[C@@H]4CCCN4C(=O)CN4CCCCC4)cc3)o2)cc1)[C@@H]1CCCN1C(=O)CN1CCCCC1", "note": "[XY-41, (2S,2′S)-N,N′-(1,3-oxazole-2,5-diyldi-4,1-phenylene)bis(1-(1-piperidinylacetyl)-2-pyrrolidinecarboxamide)]", "EC50": "1000 to 10000"}, {"smiles": "O=C(Nc1ccc(-c2cnc(-c3ccc(NC(=O)[C@@H]4CCCN4C(=O)Cc4cnc[nH]4)cc3)o2)cc1)[C@@H]1CCCN1C(=O)Cc1c[nH]cn1", "note": "[XY-14, (2S)-1-(1H-imidazol-4-ylacetyl)-N-(4-(2-(4-((((2S)-1-(1H-imidazol-5-ylacetyl)-2-pyrrolidinyl)carbonyl)amino)phenyl)-1,3-oxazol-5-yl)phenyl)-2-pyrrolidinecarboxamide (non-preferred name)]", "EC50": "1000 to 10000"}]}, {"tested_on": "HCV 1b genotype", "experiment": "HCV replicon assay (HCV-neo replicon cells, wild-type)", "format": "cell-based, Hepatitis C virus", "conditions": "HCV 1b genotype replicon; read-out: EC50 1b", "summary_of_the_method": "as §1", "units": {"EC50": "nM"}, "values": [{"smiles": "CCOC(=O)c1cc(C(O)C(=O)N2CCC[C@H]2C(=O)Nc2ccc(-c3cnc(-c4ccc(NC(=O)[C@@H]5CCCN5C(=O)C(O)c5c[nH]c(C(=O)OCC)c5)cc4)o3)cc2)c[nH]1", "note": "(stereo partly drawn) [Example D-12, diethyl 4,4′-(2,2′-(2S,2′S)-2,2′-(4,4′-(oxazole-2,5-diyl)bis(4,1-phenylene))bis(azanediyl)bis(oxomethylene)bis(pyrrolidine-2,1-diyl)bis(1-hydroxy-2-oxoethane-2,1-diyl))bis(1H-pyrrole-2-carboxylate)]", "EC50": 2360}]}, {"tested_on": "HCV 1b genotype", "experiment": "HCV replicon assay (HCV-neo replicon cells, wild-type)", "format": "cell-based, Hepatitis C virus", "conditions": "Hepatitis C virus, HCV 1b genotype replicon; class symbol; read-out: EC50 Range against HCV 1b", "summary_of_the_method": "as §1", "units": {"EC50": "nM"}, "values": [{"smiles": "CC(C)[C@H](NC(=O)OCc1ccccc1)C(=O)Nc1ccc(-c2cnc(-c3ccc(NC(=O)[C@@H](NC(=O)OCc4ccccc4)C(C)C)cc3)o2)cc1", "note": "[JG-4, dibenzyl (1,3-oxazole-2,5-diylbis(4,1-phenyleneimino((2S)-3-methyl-1-oxo-1,2-butanediyl)))biscarbamate]", "EC50": "100 to 999"}, {"smiles": "CC(=O)N1CCC[C@H]1C(=O)Nc1ccc(-c2nnc(-c3ccc(NC(=O)[C@@H]4CCCN4C(=O)Cc4cccnc4)cc3)o2)cc1", "note": "[Example D-64, (2S)-1-acetyl-N-[4-[5-[4-[[[(2S)-1-(3-pyridinylacetyl)-2-pyrrolidinyl]carbonyl]amino]phenyl]-1,3,4-oxadiazol-2-yl]phenyl]-2-pyrrolidinecarboxamide]", "EC50": "1000 to 10000"}, {"smiles": "CC(=O)N1CCC[C@H]1C(=O)Nc1ccc(-c2nnc(-c3ccc(NC(=O)[C@@H]4CCCN4C(C)=O)cc3)o2)cc1", "note": "[Example D-55, (2S,2′S)-N,N′-(1,3,4-oxadiazole-2,5-diyldi-4,1-phenylene)bis[1-acetyl-2-pyrrolidinecarboxamide]]", "EC50": "1000 to 10000"}, {"smiles": "CO[C@H]1C[C@@H](C(=O)Nc2ccc(-c3cnc(-c4ccc(NC(=O)[C@@H]5C[C@H](OC)CN5C(=O)C(NC(C)=O)c5ccccc5)cc4)o3)cc2)N(C(=O)C(NC(C)=O)c2ccccc2)C1", "note": "(stereo partly drawn) [OL-60, (2S,4S,2′S,4′S)-N,N′-(1,3-oxazole-2,5-diyldi-4,1-phenylene)bis(1-(acetamido(phenyl)acetyl)-4-methoxy-2-pyrrolidinecarboxamide)]", "EC50": "4.57 to 99"}, {"smiles": "O=C(Nc1ccc(-c2ccc(-c3ccc(NC(=O)[C@@H]4CCCN4C(=O)Cc4ccccc4)cc3)s2)cc1)[C@@H]1CCCN1C(=O)Cc1ccccc1", "note": "[OL-22, (2S,2′S)-N,N′-(2,5-thienediyldi-4,1-phenylene)bis(1-(phenylacetyl)-2-pyrrolidinecarboxamide)]", "EC50": "4.57 to 99"}, {"smiles": "O=C(Nc1ccc(-c2nnc(-c3ccc(NC(=O)[C@@H]4CCC(=O)N4C(=O)OCc4ccccc4)cc3)o2)cc1)[C@@H]1CCC(=O)N1C(=O)OCc1ccccc1", "note": "[RK-2, dibenzyl (2S,2′S)-2,2′-(1,3,4-oxadiazole-2,5-diylbis(4,1-phenylenecarbamoyl))bis(5-oxo-1-pyrrolidinecarboxylate)]", "EC50": "1000 to 10000"}, {"smiles": "O=C(Nc1ccc(-c2cc(-c3ccc(NC(=O)[C@@H]4CCCN4C(=O)C4CC4)cc3)[nH]n2)cc1)[C@@H]1CCCN1C(=O)C1CC1", "note": "[OL-35, (2S,2′S)-N,N′-(1H-pyrazole-3,5-diyldi-4,1-phenylene)bis(1-(cyclopropylcarbonyl)-2-pyrrolidinecarboxamide)]", "EC50": "1000 to 10000"}, {"smiles": "COc1cc(C(=O)N[C@@H](C)C(=O)Nc2ccc(-c3nnc(-c4ccc(NC(=O)[C@H](C)NC(=O)c5cc(OC)c6ccccc6n5)cc4)o3)cc2)nc2ccccc12", "note": "[RK-22, N,N′-(1,3,4-oxadiazole-2,5-diylbis(4,1-phenyleneimino((2S)-1-oxo-1,2-propanediyl)))bis(4-methoxy-2-quinolinecarboxamide)]", "EC50": "100 to 999"}, {"smiles": "O=C(Nc1ccc(-c2nnc(-c3ccc(NC(=O)[C@@H]4CCCN4C(=O)c4ccco4)cc3)o2)cc1)[C@@H]1CCCN1C(=O)c1ccco1", "note": "[RK-13, (2S,2′S)-N,N′-(1,3,4-oxadiazole-2,5-diyldi-4,1-phenylene)bis(1-(2-furoyl)-2-pyrrolidinecarboxamide)]", "EC50": "100 to 999"}, {"smiles": "CC(=O)O[C@@H](C(=O)N1CCC[C@H]1C(=O)Nc1ccc(-c2ccc(-c3ccc(NC(=O)[C@@H]4CCCN4C(=O)[C@H](OC(C)=O)c4ccccc4)cc3)o2)cc1)c1ccccc1", "EC50": "< 4.57"}, {"smiles": "C[C@H](NC(=O)[C@@H](O)c1ccccc1)C(=O)Nc1ccc(-c2nnc(-c3ccc(NC(=O)[C@H](C)NC(=O)[C@@H](O)c4ccccc4)cc3)o2)cc1", "note": "[RK-24, (2S,2′S)-N,N′-(1,3,4-oxadiazole-2,5-diyldi-4,1-phenylene)bis(2-(((2S)-2-hydroxy-2-phenylacetyl)amino)propanamide)]", "EC50": "100 to 999"}, {"smiles": "COc1cccc2c(C(=O)N3CCC[C@H]3C(=O)Nc3ccc(-c4ccc(-c5ccc(NC(=O)[C@@H]6CCCN6C(=O)[C@@H](O)c6ccccc6)cc5)o4)cc3)nc(Cl)cc12", "note": "[JG-68, (2S)-1-((3-chloro-5-methoxy-1-isoquinolinyl)carbonyl)-N-(4-(5-(4-((((2S)-1-((2S)-2-hydroxy-2-phenylacetyl)-2-pyrrolidinyl)carbonyl)amino)phenyl)-2-furyl)phenyl)-2-pyrrolidinecarboxamide]", "EC50": "100 to 999"}, {"smiles": "O=C(Nc1ccc(-c2nc[nH]c2-c2ccc(NC(=O)[C@@H]3C[C@@H](O)CN3C(=O)Cc3ccccc3)cc2)cc1)[C@@H]1C[C@@H](O)CN1C(=O)Cc1ccccc1", "note": "[OL-11]", "EC50": "100 to 999"}, {"smiles": "C[C@H](NC(=O)OCc1ccccc1)C(=O)Nc1ccc(-c2nc[nH]c2-c2ccc(NC(=O)[C@H](C)NC(=O)OCc3ccccc3)cc2)cc1", "note": "[OL-8, [1H-imidazole-4,5-diylbis[4,1-phenyleneimino[(1S)-1-methyl-2-oxo-2,1-ethanediyl]]]bis-carbamic acid, bis(phenylmethyl) ester]", "EC50": "4.57 to 99"}, {"smiles": "O=C(Nc1ccc(-c2cnc(-c3ccc(NC(=O)N[C@@H]4CCN(C(=O)[C@H](O)c5ccccc5)C4)cc3)o2)cc1)N[C@@H]1CCN(C(=O)[C@H](O)c2ccccc2)C1", "note": "[FY-5, N′,N′″-(1,3-oxazole-2,5-diyldi-4,1-phenylene)bis(1-((3R)-1-((2R)-2-hydroxy-2-phenylacetyl)-3-pyrrolidinyl)urea)]", "EC50": "100 to 999"}, {"smiles": "O=C(Nc1ccc(-c2cc(-c3ccc(NC(=O)[C@@H]4C[C@@H](O)CN4C(=O)Cc4ccccc4)cc3)[nH]n2)cc1)[C@@H]1C[C@@H](O)CN1C(=O)Cc1ccccc1", "note": "[OL-28, (2S,4R,2′S,4′R)-N,N′-(1H-pyrazole-3,5-diyldi-4,1-phenylene)bis(4-hydroxy-1-(phenylacetyl)-2-pyrrolidinecarboxamide)]", "EC50": "4.57 to 99"}, {"smiles": "O=C(Nc1ccc(-c2cc(-c3ccc(NC(=O)[C@@H]4CCCN4C(=O)Cc4ccccc4)cc3)[nH]n2)cc1)[C@@H]1CCCN1C(=O)Cc1ccccc1", "note": "[OL-27, (2S,2′S)-N,N′-(1H-pyrazole-3,5-diyldi-4,1-phenylene)bis[1-(phenylacetyl)-2-pyrrolidinecarboxamide]]", "EC50": "4.57 to 99"}, {"smiles": "C[C@H](NC(=O)OCc1ccccc1)C(=O)Nc1ccc(-c2nc(CC(=O)O)oc2-c2ccc(NC(=O)[C@H](C)NC(=O)OCc3ccccc3)cc2)cc1", "note": "[OL-1, 4,5-bis[4-[[(2S)-1-oxo-2-[[(phenylmethoxy)carbonyl]amino]propyl]amino]phenyl]-2-oxazoleacetic acid]", "EC50": "1000 to 10000"}]}, {"tested_on": "HCV 1b genotype", "experiment": "HCV replicon assay (HCV-neo replicon cells, wild-type)", "format": "cell-based, Hepatitis C virus", "conditions": "Hepatitis C virus, HCV 1b genotype replicon; class symbols; read-out: EC50 Range against HCV 1b", "summary_of_the_method": "as §1", "units": {"EC50": "nM"}, "values": [{"smiles": "CC(C)(C)O[C@@H]1C[C@@H](C(=O)Nc2ccc(-c3cnc(-c4ccc(NC(=O)[C@@H]5C[C@@H](OC(C)(C)C)CN5C(=O)[C@H]5CCCO5)cc4)o3)cc2)N(C(=O)[C@H]2CCCO2)C1", "note": "[XY-68, (2S,4R,2′S,4′R)-N,N′-(1,3-oxazole-2,5-diyldi-4,1-phenylene)bis(4-tert-butoxy-1-((2R)-tetrahydro-2-furanylcarbonyl)-2-pyrrolidinecarboxamide)]", "EC50": "100 to 999"}, {"smiles": "Cn1cncc1C(O)C(=O)N1CCC[C@H]1C(=O)Nc1ccc(-c2cnc(-c3ccc(NC(=O)[C@@H]4CCCN4C(=O)C(O)c4cncn4C)cc3)o2)cc1", "note": "(stereo partly drawn) [JR-3, (2S,2′S)-N,N′-(2,5-oxazolediyldi-4,1-phenylene)bis[1-[hydroxy(1-methyl-1H-imidazol-5-yl)acetyl]-2-pyrrolidinecarboxamide]]", "EC50": "100 to 999"}, {"smiles": "Cn1cc(C(=O)N2CCC[C@H]2C(=O)Nc2ccc(-c3nnc(-c4ccc(NC(=O)[C@@H]5CCCN5C(=O)c5cn(C)c6ccccc56)cc4)o3)cc2)c2ccccc21", "note": "[RK-42, (2S,2′S)-N,N′-(1,3,4-oxadiazole-2,5-diyldi-4,1-phenylene)bis(1-((1-methyl-1H-indol-3-yl)carbonyl)-2-pyrrolidinecarboxamide)]", "EC50": "1000 to 10000"}, {"smiles": "COC(C(=O)N1C[C@H](O)C[C@H]1C(=O)Nc1ccc(-c2cnc(-c3ccc(NC(=O)[C@@H]4C[C@@H](O)CN4C(=O)C(OC)c4ccccc4)cc3)o2)cc1)c1ccccc1", "note": "(stereo partly drawn) [XY-49, (2S,4R,2′S,4′R)-N,N′-(1,3-oxazole-2,5-diyldi-4,1-phenylene)bis(4-hydroxy-1-(methoxy(phenyl)acetyl)-2-pyrrolidinecarboxamide)]", "EC50": "4.57 to 99"}]}, {"tested_on": "HCV 1b genotype", "experiment": "HCV replicon assay (HCV-neo replicon cells, wild-type)", "format": "cell-based, Hepatitis C virus", "conditions": "Hepatitis C virus, HCV 1b genotype replicon; read-out: EC50 1b", "summary_of_the_method": "as §1", "units": {"EC50": "nM"}, "values": [{"smiles": "CC(=O)N1CCC[C@H]1C(=O)Nc1ccc(-c2nnc(-c3ccc(NC(=O)[C@@H]4CCCN4C(=O)Cc4cccnc4)cc3)o2)cc1", "note": "[Example D-64, (2S)-1-acetyl-N-[4-[5-[4-[[[(2S)-1-(3-pyridinylacetyl)-2-pyrrolidinyl]carbonyl]amino]phenyl]-1,3,4-oxadiazol-2-yl]phenyl]-2-pyrrolidinecarboxamide]", "EC50": 6570}, {"smiles": "CC(=O)N1CCC[C@H]1C(=O)Nc1ccc(-c2nnc(-c3ccc(NC(=O)[C@@H]4CCCN4C(C)=O)cc3)o2)cc1", "note": "[Example D-55, (2S,2′S)-N,N′-(1,3,4-oxadiazole-2,5-diyldi-4,1-phenylene)bis[1-acetyl-2-pyrrolidinecarboxamide]]", "EC50": 10000}, {"smiles": "O=C(Nc1ccc(-c2cc(-c3ccc(NC(=O)[C@@H]4CCCN4C(=O)C4CC4)cc3)[nH]n2)cc1)[C@@H]1CCCN1C(=O)C1CC1", "note": "[OL-35, (2S,2′S)-N,N′-(1H-pyrazole-3,5-diyldi-4,1-phenylene)bis(1-(cyclopropylcarbonyl)-2-pyrrolidinecarboxamide)]", "EC50": 8250}, {"smiles": "O=C(Nc1ccc(-c2cc(-c3ccc(NC(=O)[C@@H]4CCCN4C(=O)Cc4ccccc4)cc3)[nH]n2)cc1)[C@@H]1CCCN1C(=O)Cc1ccccc1", "note": "[OL-27, (2S,2′S)-N,N′-(1H-pyrazole-3,5-diyldi-4,1-phenylene)bis[1-(phenylacetyl)-2-pyrrolidinecarboxamide]]", "EC50": 10}]}]}
